The values that follow come from US20230265116A1, “DEGRADATION OF (EGFR) BY CONJUGATION OF EGFR INHIBITORS WITH E3 LIGASE LIGAND AND METHODS OF USE” (BEIGENE, LTD., priority 2020, published 2023).

Like-named read-outs stand apart in the source and are kept apart here.

What all share (format): cell-based
In assay [1] the test system is EGFR Del19/T790M/C797S (H1975-clone #28). Briefly: EGFR degradation HTRF assay, H1975-clone #28 DTC cells. In a few lines:
(§1)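 The test uses H1975 clonal lines carrying lentiviral mutant EGFR with endogenous copies removed, treated 16h at 37° C., 5% CO2. EGFR left in the lysate is quantified by HTRF, and DC50 is derived from an 8-dose curve starting at 10 uM final.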
Background: Time-resolved FRET reads energy transfer from a long-lived donor to a nearby acceptor.

The target of assay [2] is T1, EGFR L858R/C797S (BaF3 LC cells) (Homo sapiens, UniProt P00533, C797S/L858R).
T1 construct: expressed in transfected cells; host or cells: BaF3
T1 sequence (P00533 25-1210 C797S/L858R): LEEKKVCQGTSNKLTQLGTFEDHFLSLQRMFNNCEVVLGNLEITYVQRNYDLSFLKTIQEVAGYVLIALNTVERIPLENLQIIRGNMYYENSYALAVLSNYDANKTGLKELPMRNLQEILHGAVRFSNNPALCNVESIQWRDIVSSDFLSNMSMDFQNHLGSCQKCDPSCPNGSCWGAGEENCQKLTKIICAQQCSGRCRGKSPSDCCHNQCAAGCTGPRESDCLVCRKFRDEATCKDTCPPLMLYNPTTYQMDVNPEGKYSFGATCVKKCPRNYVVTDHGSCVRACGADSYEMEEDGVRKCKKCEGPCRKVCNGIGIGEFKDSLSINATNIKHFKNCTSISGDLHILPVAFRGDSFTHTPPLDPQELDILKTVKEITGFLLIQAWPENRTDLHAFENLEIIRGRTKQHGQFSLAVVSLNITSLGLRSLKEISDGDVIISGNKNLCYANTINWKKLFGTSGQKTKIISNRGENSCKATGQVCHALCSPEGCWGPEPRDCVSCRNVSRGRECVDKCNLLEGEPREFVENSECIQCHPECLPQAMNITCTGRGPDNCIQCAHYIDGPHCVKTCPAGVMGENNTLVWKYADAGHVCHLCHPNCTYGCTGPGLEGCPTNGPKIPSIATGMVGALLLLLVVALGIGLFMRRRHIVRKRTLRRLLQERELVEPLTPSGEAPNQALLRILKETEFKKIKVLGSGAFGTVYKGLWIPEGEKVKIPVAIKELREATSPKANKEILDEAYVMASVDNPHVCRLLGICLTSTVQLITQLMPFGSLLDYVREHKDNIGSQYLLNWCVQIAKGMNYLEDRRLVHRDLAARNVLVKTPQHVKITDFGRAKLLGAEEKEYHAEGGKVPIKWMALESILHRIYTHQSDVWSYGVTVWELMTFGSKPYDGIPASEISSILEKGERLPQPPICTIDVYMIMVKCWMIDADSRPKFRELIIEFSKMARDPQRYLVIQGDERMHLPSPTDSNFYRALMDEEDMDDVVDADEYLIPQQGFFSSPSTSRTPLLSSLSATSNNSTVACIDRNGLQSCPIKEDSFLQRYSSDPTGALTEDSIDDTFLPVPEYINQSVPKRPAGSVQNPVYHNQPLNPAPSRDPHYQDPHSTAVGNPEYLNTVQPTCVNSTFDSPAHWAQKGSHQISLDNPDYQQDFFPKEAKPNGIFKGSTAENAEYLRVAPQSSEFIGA
Nature of the assay: EGFR degradation HTRF assay, BaF3 LC cells.

The subject of assay [3] is EGFR Del19/C797S (H1975-clone #23). Nature of the assay: EGFR degradation HTRF assay, H1975-clone #23 DC cells. To be noted: for H1975 #23 DC Dmax (%): maximum percentage of degradation. In a few lines:
as §1

The target in assay [4] is T2, EGFR L858R/T790M/C797S (BaF3-LTC cells) (Homo sapiens, UniProt P00533, C797S/L858R/T790M).
T2 construct: expressed in transfected cells; host or cells: BaF3
T2 sequence (P00533 25-1210 T790M/C797S/L858R): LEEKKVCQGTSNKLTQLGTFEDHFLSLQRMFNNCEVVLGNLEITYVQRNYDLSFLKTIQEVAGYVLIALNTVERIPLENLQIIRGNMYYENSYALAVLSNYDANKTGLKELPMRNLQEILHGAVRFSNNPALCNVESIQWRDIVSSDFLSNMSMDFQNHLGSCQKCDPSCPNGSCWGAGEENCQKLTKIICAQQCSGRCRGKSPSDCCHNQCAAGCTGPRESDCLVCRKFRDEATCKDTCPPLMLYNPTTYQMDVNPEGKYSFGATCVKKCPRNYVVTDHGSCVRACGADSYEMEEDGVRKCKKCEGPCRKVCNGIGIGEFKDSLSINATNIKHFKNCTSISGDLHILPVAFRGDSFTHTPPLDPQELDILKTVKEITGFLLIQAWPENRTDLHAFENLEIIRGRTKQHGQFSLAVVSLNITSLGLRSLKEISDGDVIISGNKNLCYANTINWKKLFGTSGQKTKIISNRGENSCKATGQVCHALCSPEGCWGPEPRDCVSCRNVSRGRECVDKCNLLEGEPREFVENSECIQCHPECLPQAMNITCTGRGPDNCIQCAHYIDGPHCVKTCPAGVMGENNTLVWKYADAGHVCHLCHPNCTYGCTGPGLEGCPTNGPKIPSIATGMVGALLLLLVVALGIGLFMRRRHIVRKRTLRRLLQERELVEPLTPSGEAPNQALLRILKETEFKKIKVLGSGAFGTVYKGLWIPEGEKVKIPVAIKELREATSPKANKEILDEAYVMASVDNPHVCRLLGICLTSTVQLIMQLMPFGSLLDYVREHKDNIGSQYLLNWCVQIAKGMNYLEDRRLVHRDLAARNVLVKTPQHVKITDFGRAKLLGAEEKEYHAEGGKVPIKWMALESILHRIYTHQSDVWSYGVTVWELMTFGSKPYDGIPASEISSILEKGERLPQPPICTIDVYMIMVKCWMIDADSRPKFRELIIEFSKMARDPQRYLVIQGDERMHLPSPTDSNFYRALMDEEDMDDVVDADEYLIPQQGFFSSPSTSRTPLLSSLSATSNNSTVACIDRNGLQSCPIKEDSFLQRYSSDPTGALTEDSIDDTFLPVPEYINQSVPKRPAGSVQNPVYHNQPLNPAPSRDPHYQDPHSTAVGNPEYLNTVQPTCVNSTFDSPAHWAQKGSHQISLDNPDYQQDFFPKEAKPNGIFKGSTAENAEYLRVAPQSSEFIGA
Nature of the assay: EGFR degradation HTRF assay, BaF3-LTC cells. In a few lines:
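Cells treated 16 h at 37 °C, 5% CO2 in medium with 0.2% DMSO; top final concentration 10 uM, 5-fold dilution, 8 doses. Lysates read by HTRF (665/620 nm); degradation % versus DMSO high control, DC50 from four-parameter fit, Dmax as maximal degradation.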

The mark [5] stands for this setting: H1975 # 28 DTC cells; EGFR degradation, IC50 (DC50) from curve fit; read-out: DC50(nM) H1975 # 28 DTC.
The mark [6] stands for this setting: H1975 # 28 DTC cells; maximum percentage of inhibition (degradation).
Setting [7] is: BaF3 LC, 16h treatment; read-out: BaF3 LC DC50.
Setting [8] is: H1975 #23 DC, 16h treatment, read-out: H1975 #23 DC DC50.
Setting [9] is: BaF3-LTC cells; EGFR degradation, IC50 (DC50) from curve fit; read-out: DC50(nM) BaF3-LTC.
Setting [10] is: BaF3 LC, 16h treatment, maximum percentage of degradation; read-out: BaF3 LC Dmax (%).
The mark [11] stands for this setting: BaF3-LTC cells; maximum percentage of inhibition (degradation); read-out: Dmax (%) BaF3-LTC.

As a reminder, the DC50 is the midpoint of the concentration-degradation curve. Broadly, the Dmax is the largest share of the target that was removed.

For the compound `CCOc1cc(N2CCC(N3CCN(CCc4c(F)ccc5c4n(CC)c(=O)n5C4CCC(=O)NC4=O)CC3)CC2)c(CC)cc1Nc1ncc(Br)c(Nc2ccc3c(=O)n(CC)ncc3c2P(C)(C)=O)n1` (stereo not drawn) [Example 559, 3-(4-(2-(4-(1-(4-((5-bromo-4-((5-(dimethylphosphoryl)-2-ethyl-1-oxo-1,2-dihydrophthalazin-6-yl)amino)pyrimidin-2-yl)amino)-5-ethoxy-2-ethylphenyl)piperidin-4-yl)piperazin-1-yl)ethyl)-3-ethyl-5-fluoro-2-oxo-2,3-dihydro-1H-benzo[d]imidazol-1-yl)piperidine-2,6-dione], the DC50 in assay [1] (setting [5]) worked out at 0.364 nM; in assay [2] (setting [7]), 26.9 nM; in assay [3] (setting [8]) it was 5.38 nM; in assay [4] (setting [9]), 12 nM. The “Dmax (%) H1975 # 28 DTC” value in assay [1] (setting [6]) was determined as 80.93%. The “H1975 #23 DC Dmax (%)” value in assay [3] (16h treatment) is on record as 73.67%.

Regarding `CCOc1cc(N2CCC(N3CCN(CCc4cc(F)c([C@H]5CCC(=O)NC5=O)c(F)c4)CC3)CC2)c(CC)cc1Nc1ncc(Br)c(Nc2cc(F)c3nc(CC)ccc3c2P(C)(C)=O)n1` [Example 486, (R)-3-(4-(2-(4-(1-(4-((5-bromo-4-((5-(dimethylphosphoryl)-2-ethyl-8-fluoroquinolin-6-yl)amino)pyrimidin-2-yl)amino)-5-ethoxy-2-ethylphenyl)piperidin-4-yl)piperazin-1-yl)ethyl)-2,6-difluorophenyl)piperidine-2,6-dione], the DC50 came out at 0.802 nM in assay [1] (setting [5]), 16.6 nM in assay [2] (setting [7]), 4.73 nM in assay [3] (setting [8]) and 5.83 nM in assay [4] (setting [9]). For the same compound, the “Dmax (%) H1975 # 28 DTC” value in assay [1] (setting [6]) is listed as 85.73%. The “H1975 #23 DC Dmax (%)” value in assay [3] (16h treatment) is reported as 80.02%.

For `CCc1ccc2c(P(C)(C)=O)c(Nc3nc(Nc4cc(CC)c(N5CCC(N6CCN(C(=O)C7CN(c8cccc9c8oc(=O)n9C8CCC(=O)NC8=O)C7)CC6)CC5)cc4OC)ncc3Br)ccc2n1` (stereo not drawn) [Example 446, 3-(7-(3-(4-(1-(4-((5-bromo-4-((5-(dimethylphosphoryl)-2-ethylquinolin-6-yl)amino)pyrimidin-2-yl)amino)-2-ethyl-5-methoxyphenyl)piperidin-4-yl)piperazine-1-carbonyl)azetidin-1-yl)-2-oxobenzo[d]oxazol-3(2H)-yl)piperidine-2,6-dione], the “Dmax (%) H1975 # 28 DTC” value in assay [1] (setting [6]) came out at 80.48%. In addition, the DC50 in assay [1] (read-out: DC50(nM) H1975 # 28 DTC; H1975 # 28 DTC cells; EGFR degradation, IC50 (DC50) from curve fit) turned out to be 0.726 nM; in assay [2] (read-out: BaF3 LC DC50; BaF3 LC, 16h treatment), 5.87 nM; in assay [3] (read-out: H1975 #23 DC DC50, 16h treatment), 0.616 nM; in assay [4] (read-out: DC50(nM) BaF3-LTC; BaF3-LTC cells; EGFR degradation, IC50 (DC50) from curve fit) it was 3.89 nM. For the same compound, the greatest degradation seen (Dmax) in assay [2] (BaF3, read-out: BaF3 LC Dmax (%)) turned out to be 81.7%; in assay [4] (read-out: Dmax (%) BaF3-LTC, BaF3-LTC cells; maximum percentage of inhibition (degradation)), 96.4%. Moreover, the “H1975 #23 DC Dmax (%)” value in assay [3] (16h treatment) amounted to 59.25%.

As to `CCOc1cc(N2CCC(N3CCN(CCc4cc(F)c([C@H]5CCC(=O)NC5=O)c(F)c4)CC3)CC2)c(CC)cc1Nc1ncc(Br)c(Nc2ccc3nc(CC)ccc3c2P(C)(C)=O)n1` [Example 483, (R)-3-(4-(2-(4-(1-(4-((5-bromo-4-((5-(dimethylphosphoryl)-2-ethylquinolin-6-yl)amino)pyrimidin-2-yl)amino)-5-ethoxy-2-ethylphenyl)piperidin-4-yl)piperazin-1-yl)ethyl)-2,6-difluorophenyl)piperidine-2,6-dione], the DC50 is 2.02 nM in assay [1] (setting [5]), 69 nM in assay [2] (setting [7]), 7.19 nM in assay [3] (setting [8]) and 26.6 nM in assay [4] (setting [9]). Besides, the “Dmax (%) H1975 # 28 DTC” value in assay [1] (setting [6]) is recorded as 81.31%. The “H1975 #23 DC Dmax (%)” value in assay [3] (16h treatment) is 70.71%.

Consider `CCc1ccc2c(P(C)(C)=O)c(Nc3nc(Nc4cc(CC)c(N5CCC(N6CCN(CCc7ccc8c(c7)oc(=O)n8C7CCC(=O)NC7=O)CC6)CC5)cc4OC)ncc3Br)ccc2n1` (stereo not drawn) [Example 491, 3-(6-(2-(4-(1-(4-((5-bromo-4-((5-(dimethylphosphoryl)-2-ethylquinolin-6-yl)amino)pyrimidin-2-yl)amino)-2-ethyl-5-methoxyphenyl)piperidin-4-yl)piperazin-1-yl)ethyl)-2-oxobenzo[d]oxazol-3(2H)-yl)piperidine-2,6-dione], for which the DC50 in assay [1] (setting [5]) was 0.647 nM; in assay [2] (setting [7]), 2.34 nM; in assay [3] (setting [8]), 0.85 nM; in assay [4] (setting [9]) it was 2.72 nM. The “Dmax (%) H1975 # 28 DTC” value in assay [1] (setting [6]) was 78.48%. For the same compound, in assay [3] (16h treatment), the “H1975 #23 DC Dmax (%)” value stood at 58.85%.

In the case of `CCc1ccc2c(P(C)(C)=O)c(Nc3nc(Nc4cc(CC)c(N5CCC(N6CCN(CCc7ccc8c(oc(=O)n8C8CCC(=O)NC8=O)c7F)CC6)CC5)cc4OC)ncc3Br)ccc2n1` (stereo not drawn) [Example 458, 3-(6-(2-(4-(1-(4-((5-bromo-4-((5-(dimethylphosphoryl)-2-ethylquinolin-6-yl)amino)pyrimidin-2-yl)amino)-2-ethyl-5-methoxyphenyl)piperidin-4-yl)piperazin-1-yl)ethyl)-7-fluoro-2-oxobenzo[d]oxazol-3(2H)-yl)piperidine-2,6-dione], the DC50 amounted to 0.505 nM in assay [1] (setting [5]), 3.29 nM in assay [2] (setting [7]), 3.26 nM in assay [3] (setting [8]) and 2.09 nM in assay [4] (setting [9]). Besides, the “Dmax (%) H1975 # 28 DTC” value in assay [1] (setting [6]) is on record as 83.62%. Also, the Dmax in assay [2] (setting [10]) is 91.5%; in assay [4] (setting [11]) it was 88.3%. Also, the “H1975 #23 DC Dmax (%)” value in assay [3] (16h treatment) is 59.65%.

With `CCc1cc(Nc2ncc(Br)c(Nc3ccc4c(=O)n(C)ncc4c3P(C)(C)=O)n2)c(OC)cc1N1CCC(N2CCN(C(=O)[C@@H]3CCN(c4cc(F)c([C@H]5CCC(=O)NC5=O)c(F)c4)C3)CC2)CC1` [Example 528, (R)-3-(4-((R)-3-(4-(1-(4-((5-bromo-4-((5-(dimethylphosphoryl)-2-methyl-1-oxo-1,2-dihydrophthalazin-6-yl)amino)pyrimidin-2-yl)amino)-2-ethyl-5-methoxyphenyl)piperidin-1)piperazine-1-carbonyl)pyrrolidin-1-yl)2,6-difluorophenyl)piperidine-2,6-dione], the DC50 in assay [1] (setting [5]) was 0.632 nM; in assay [2] (setting [7]), 14.9 nM; in assay [3] (setting [8]), 1.58 nM; in assay [4] (setting [9]), 3.63 nM. Further, the “Dmax (%) H1975 # 28 DTC” value in assay [1] (setting [6]) is given as 86.11%. The Dmax in assay [2] (setting [10]) worked out at 83.9%; in assay [4] (setting [11]) it was 97.3%. For the same compound, the “H1975 #23 DC Dmax (%)” value in assay [3] (16h treatment) came to 54.87%.

On to `CCOc1cc(N2CCC(N3CCN(CCc4cccc5c4oc(=O)n5C4CCC(=O)NC4=O)CC3)CC2)c(CC)cc1Nc1ncc(Br)c(Nc2ccc3nc(CC)ccc3c2P(C)(C)=O)n1` (stereo not drawn) [Example 473, 3-(7-(2-(4-(1-(4-((5-bromo-4-((5-(dimethylphosphoryl)-2-ethylquinolin-6-yl)amino)pyrimidin-2-yl)amino)-5-ethoxy-2-ethylphenyl)piperidin-4-yl)piperazin-1-yl)ethyl)-2-oxobenzo[d]oxazol-3(2H)-yl)piperidine-2,6-dione], for which the DC50 amounted to 0.616 nM in assay [1] (setting [5]), 73.4 nM in assay [2] (setting [7]), 12.8 nM in assay [3] (setting [8]) and 9.51 nM in assay [4] (setting [9]). In addition, in assay [1] (setting [6]), the “Dmax (%) H1975 # 28 DTC” value was 83.08%. In addition, in assay [3] (16h treatment), the “H1975 #23 DC Dmax (%)” value was determined as 82.45%.
